Laboratory results: ChEMBL document CHEMBL1125459, “Synthesis and biological activity of 8a-phenyldecahydroquinolines as probes of PCP's binding conformation. A new PCP-like compound with increased in vivo potency” (J Med Chem, 1992)

How the values were obtained:
Mus musculus = assay: Compound was evaluated in vivo for effective dose by subcutaneous administration in mice using cGMP assay; assay type: functional; details: sc
[1] = Compound was evaluated for its affinity towards N-methyl-D-aspartate glutamate receptor in male Swiss Webster mice.
[2] = Compound was evaluated for its affinity towards NMDA receptor in male Swiss Webster mice.

| SMILES | ED50 (Mus musculus) | IC50 [1] | IC50 [2] |
| --- | --- | --- | --- |
| c1ccc([C@@]23CCCC[C@H]2CCCN3)cc1 | 0.16 mg/kg | 66.3 nM |  |
| c1ccc([C@]23CCCC[C@H]2CCCN3)cc1 |  | 467 nM |  |
| c1ccc(C2(N3CCCCC3)CCCCC2)cc1 [PHENCYCLIDINE] |  | 35 nM |  |
| c1ccc([C@]23CCCC[C@@H]2CCCN3)cc1 |  |  | 94.6 nM |
| c1ccc([C@@]23CCCC[C@@H]2CCCN3)cc1 |  |  | 159 nM |
| C[C@]12N[C@H](Cc3ccccc31)c1ccccc12 [DIZOCILPINE] | 0.3 mg/kg | 1.4 nM |  |
